Data taken from article PMC7581941, “Schedule-Dependent Synergy Between the Histone Deacetylase Inhibitor Belinostat and the Dihydrofolate Reductase Inhibitor Pralatrexate in T-and B-cell Lymphoma Cells in vitro” (Frontiers in Cell and Developmental Biology, 2020).

Columns and labels:
RFC = molecular target: T1, RFC (Homo sapiens, UniProt P41440); assay: RFC competition assay: inhibition of [3H]-l-LV uptake in CCRF-CEM/7A cells (RFC+++); type: cell-based; settings: 5 μM [3H]-l-LV, 2 min, 37°C, CCRF-CEM/7A cells; read-out: RFC: concentration of unlabeled drug necessary to inhibit [3H]-l-LV uptake by 50%
T1 construct: CEM-7A cells overexpress the RFC 30-fold over wild-type CCRF-CEM cells; endogenous in cells; host or cells: CCRF-CEM/7A (CEM-7A) cells
T1 sequence (P41440 1-591): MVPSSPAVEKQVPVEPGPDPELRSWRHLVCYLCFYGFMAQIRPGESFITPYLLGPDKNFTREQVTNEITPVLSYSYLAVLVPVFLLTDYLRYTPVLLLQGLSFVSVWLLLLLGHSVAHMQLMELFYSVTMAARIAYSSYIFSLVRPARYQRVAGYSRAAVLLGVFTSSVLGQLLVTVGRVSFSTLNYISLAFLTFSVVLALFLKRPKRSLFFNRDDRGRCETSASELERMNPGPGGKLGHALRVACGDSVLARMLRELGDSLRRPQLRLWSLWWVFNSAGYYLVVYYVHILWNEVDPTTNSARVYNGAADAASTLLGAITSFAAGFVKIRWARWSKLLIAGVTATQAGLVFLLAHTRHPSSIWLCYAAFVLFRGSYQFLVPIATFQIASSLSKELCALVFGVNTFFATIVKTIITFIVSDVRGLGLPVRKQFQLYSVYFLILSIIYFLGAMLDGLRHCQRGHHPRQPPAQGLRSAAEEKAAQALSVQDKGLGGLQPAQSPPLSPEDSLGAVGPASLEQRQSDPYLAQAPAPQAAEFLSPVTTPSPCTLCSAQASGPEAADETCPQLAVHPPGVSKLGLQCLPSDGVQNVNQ
Method: For FRα and FRβ, we used an intact cell binding assay for competitive binding with KB cells and CHO-FRβ cells, respectively. […] For RFC we used a competition assay with 5 μM [^3H]-l-LV in CCRF-CEM/7A cells (RFC+++) for 2 min at 37°C.
Transport was determined by evaluation of the uptake of 5 μM [^3H]-l-LV for 2 min in CCRF-CEM-7A cells, which overexpress RFC. […] Values are from one representative experiment in triplicate; performed three times. Error bars represent SEM, when not visible, they are within the size of the marker.

PCFT = molecular target: T2, PCFT (Homo sapiens, UniProt Q96NT5); assay: PCFT competition assay: inhibition of [3H]-l-LV influx in CHO-cells lacking RFC and transfected with PCFT; type: cell-based; settings: 2.5 μM [3H]-l-LV, pH 5.5, 3 min, 37°C; read-out: PCFT: concentration of unlabeled drug necessary to inhibit [3H]-LV influx
T2 construct: expressed in transfected cells; host or cells: CHO cells lacking RFC
T2 sequence (Q96NT5 1-459): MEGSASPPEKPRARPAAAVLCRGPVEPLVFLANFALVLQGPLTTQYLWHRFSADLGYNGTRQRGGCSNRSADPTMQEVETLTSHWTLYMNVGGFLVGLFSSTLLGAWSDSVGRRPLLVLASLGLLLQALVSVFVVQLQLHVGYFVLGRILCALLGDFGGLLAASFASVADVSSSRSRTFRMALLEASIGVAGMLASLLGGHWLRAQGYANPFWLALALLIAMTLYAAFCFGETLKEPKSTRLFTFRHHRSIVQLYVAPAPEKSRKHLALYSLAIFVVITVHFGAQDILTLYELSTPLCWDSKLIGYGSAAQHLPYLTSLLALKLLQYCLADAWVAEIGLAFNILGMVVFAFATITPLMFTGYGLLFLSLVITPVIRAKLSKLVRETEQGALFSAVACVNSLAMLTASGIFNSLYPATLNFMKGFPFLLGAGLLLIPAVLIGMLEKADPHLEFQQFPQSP
Method: The affinity for PCFT of PLX was assessed in competition with 2.5 μM ^3H-l-LV at pH 5.5 in CHO-cells lacking RFC and transfected with PCFT. […] […] Also for PCFT relative affinities were expressed as the concentration of unlabeled drug necessary to inhibit [^3H]-LV influx.

FRα = molecular target: T3, FRα (Homo sapiens, UniProt P15328); assay: Intact cell binding assay, displacement of radio-active folic acid from KB cells; settings: inverse ratio of compound to displace 50% of radio-active folic acid, folic acid set at 1
T3 construct: endogenous in cells; host or cells: KB cells
T3 sequence (P15328 25-257): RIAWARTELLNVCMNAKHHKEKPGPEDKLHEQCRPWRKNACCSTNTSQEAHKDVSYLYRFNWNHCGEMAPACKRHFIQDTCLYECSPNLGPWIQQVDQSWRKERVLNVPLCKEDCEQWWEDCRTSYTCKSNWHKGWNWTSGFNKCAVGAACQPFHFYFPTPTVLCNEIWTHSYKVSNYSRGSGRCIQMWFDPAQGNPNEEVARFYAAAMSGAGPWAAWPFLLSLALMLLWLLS
Method: In order to determine to which extent PLX was a substrate for either the folate receptors, RFC or PCFT we used competition experiments in cell lines overexpressing either transporter ([Westerhof et al., 1995a], [b]; [Jansen et al., 1997]; [Ifergan et al., 2008]; [Lasry et al., 2008]; [van der Heijden et al., 2009]). For FRα and FRβ, we used an intact cell binding assay for competitive binding with KB cells and CHO-FRβ cells, respectively. […] For RFC we used a competition assay with 5 μM [^3H]-l-LV in CCRF-CEM/7A cells (RFC+++) for 2 min at 37°C. CEM-7A cells overexpress the RFC 30-fold over wild-type CCRF-CEM cells ([Jansen et al., 1990], [1997]).

For `Nc1nc(=O)c2c([nH]1)NC[C@H](CNc1ccc(C(=O)N[C@@H](CCC(=O)O)C(=O)O)cc1)N2C=O` [l-LV, l-Leucovorin], the IC50 (RFC) was 5.5 ± 0.7 µM, the IC50 (PCFT) was 4 ± 0.1 µM and the FR-α relative affinity (FRα) was 0.073 ± 0.0010.
